Assay results taken from publication PMC8160793, “Potent Antimicrobial and Antibiofilm Activities of Feleucin-K3 Analogs Modified by α-(4-Pentenyl)-Ala against Multidrug-Resistant Bacteria” (Biomolecules, 2021).
Square brackets hold non-standard residues; d marks the D form. Peptide text beside a SMILES is read from it. ξ: configuration not given here. ξαMeGly(pent-4-enyl) = C=CCCCC(C)(N)C(=O)O

Legend:
E. coli ATCC 25922 [1] = assay type: cell-based; conditions: ATCC 25922, 18 h
Procedure: (§1) The minimum inhibitory concentration (MIC) of the Feleucin-K3 analogs was tested by the broth microdilution method. Sensitive bacteria and drug-resistant bacteria were diluted to 1 × 10^6 CFU/mL, according to the McFarland standards. Bacterial suspension and peptide solutions (8–128 μg/mL) were incubated at 37 °C for 18 h. The minimum concentration without obvious bacterial growth was the MIC of the peptides. The stability of the analogs in a physiological salt environment was also investigated. In brief, salt powder (450-mM NaCl) was dissolved in deionized water, and the following investigational steps were the same as those described before. The above steps were repeated several times, until the same value was obtained three times.

A. baumannii ATCC 19606 [2] = assay type: cell-based, Acinetobacter baumannii; conditions: ATCC 19606, 24 h
Procedure: (§2) The antibiofilm activity of the peptides was determined according to the previously described methods. Strains (final concentration of 5 × 10^5 CFU/mL) and peptides (4–128 μg/mL) were incubated for 24 h at 37 °C. Biofilm cells were cleaned with 0.01-M PBS and fixed with methanol. Crystal violet (0.1%, HopeBiol, Qingdao, China) was used to stain the biofilm cells for 10 min. After washing with water, 95% ethanol was finally added, and the optical density at 595 nm was measured with a microplate reader (Flex Station 3; Laguna Hills, CA, USA).

E. coli ATCC 25922 [3] = assay type: cell-based; conditions: ATCC 25922, 24 h
Procedure: as §2

A. baumannii 9896 = assay type: cell-based, Acinetobacter baumannii; conditions: 9896, 18 h
Procedure: as §1

A. baumannii 91810 = assay type: cell-based, Acinetobacter baumannii; conditions: 91810, 18 h
Procedure: as §1

A. baumannii 91152 = assay type: cell-based, Acinetobacter baumannii; conditions: 91152, 18 h
Procedure: as §1

A. baumannii 51243 = assay type: cell-based, Acinetobacter baumannii; conditions: 51243, 18 h
Procedure: as §1

A. baumannii ATCC 19606 [4] = assay type: cell-based, Acinetobacter baumannii; conditions: ATCC 19606, 18 h
Procedure: as §1

A. baumannii 5444 = assay type: cell-based, Acinetobacter baumannii; conditions: 5444, 18 h
Procedure: as §1

A. baumannii 9236 = assay type: cell-based, Acinetobacter baumannii; conditions: 9236, 18 h
Procedure: as §1

A. baumannii 9336 = assay type: cell-based, Acinetobacter baumannii; conditions: 9336, 18 h
Procedure: as §1

A. baumannii 9828 = assay type: cell-based, Acinetobacter baumannii; conditions: 9828, 18 h
Procedure: as §1

A. baumannii 822144 = assay type: cell-based, Acinetobacter baumannii; conditions: 822144, 18 h
Procedure: as §1

A. baumannii 97830 = assay type: cell-based, Acinetobacter baumannii; conditions: 97830, 18 h
Procedure: as §1

A. baumannii 9840 = assay type: cell-based, Acinetobacter baumannii; conditions: 9840, 18 h
Procedure: as §1

A. baumannii 9234 = assay type: cell-based, Acinetobacter baumannii; conditions: 9234, 18 h
Procedure: as §1

S. aureus 725 = assay type: cell-based, Staphylococcus aureus; conditions: 725, 18 h
Procedure: as §1

MRSA ATCC 33591 = assay type: cell-based, Staphylococcus aureus; conditions: ATCC 33591, 18 h
Procedure: as §1

S. aureus 794 = assay type: cell-based, Staphylococcus aureus; conditions: 794, 18 h
Procedure: as §1

MRSA 51 = assay type: cell-based, Staphylococcus aureus; conditions: 51, 18 h
Procedure: as §1

MRSA 48 = assay type: cell-based, Staphylococcus aureus; conditions: 48, 18 h
Procedure: as §1

MRSA 71 = assay type: cell-based, Staphylococcus aureus; conditions: 71, 18 h
Procedure: as §1

MRSA 74 = assay type: cell-based, Staphylococcus aureus; conditions: 74, 18 h
Procedure: as §1

MRSA 936 = assay type: cell-based, Staphylococcus aureus; conditions: 936, 18 h
Procedure: as §1

MRSA 23 = assay type: cell-based, Staphylococcus aureus; conditions: 23, 18 h
Procedure: as §1

MRSA 54 = assay type: cell-based, Staphylococcus aureus; conditions: 54, 18 h
Procedure: as §1

MRSA 75 = assay type: cell-based, Staphylococcus aureus; conditions: 75, 18 h
Procedure: as §1

S. aureus ATCC 25923 = assay type: cell-based, Staphylococcus aureus; conditions: ATCC 25923, 18 h
Procedure: as §1

MRSA 113 = assay type: cell-based, Staphylococcus aureus; conditions: 113, 18 h
Procedure: as §1

MRSA 52 = assay type: cell-based, Staphylococcus aureus; conditions: 52, 18 h
Procedure: as §1

mouse RBCs = assay: Hemolytic activity; assay type: cell-based; conditions: equal volume of 8% RBC suspension, 1 h, OD 490 nm, Triton X-100 positive control; for hemolysis rate at 128 µg/mL: peptide 128 µg/mL (maximum concentration)
Procedure: Mouse red blood cells (RBCs) were collected using the eyeball removal method to investigate the hemolytic activity of the Feleucin-K3 analogs. Then, these analogs were incubated with the same volume of 8% RBC suspension for 1 h. After centrifugation for 10 min, 100 μL of supernatant was withdrawn, and the optical density at 490 nm was detected. The hemolysis rate of the cells treated with 0.1% Triton X-100 (Solarbio, Beijing, China) was used as a positive control, and PBS was used as a negative control.

P.aeruginosa ATCC 27853 = assay type: cell-based, Pseudomonas aeruginosa; conditions: ATCC 27853, 24 h
Procedure: as §2

C=CCCCC(C)(N)C(=O)N[C@@H](CC(C)C)C(=O)N[C@@H](CCCCN)C(=O)N[C@@H](CC(C)C)C(=O)N[C@@H](CC(C)C)C(=O)N[C@@H](CCCCN)C(=O)N[C@@H](CCCCN)C(=O)N[C@@H](CC(C)C)C(=O)N[C@@H](CC(C)C)C(N)=O (some centres unmarked) [Feleucin-K65] (H-[ξαMeGly(pent-4-enyl)]LKLLKKLL-NH2)
32 µg/mL: MBIC90, E. coli ATCC 25922 (E. coli ATCC 25922 [3])
31.6%: hemolysis rate at 128 µg/mL (mouse RBCs)
9.08%: hemolysis rate at 64 µg/mL (mouse RBCs; peptide 64 µg/mL)
16 µg/mL: MBIC50, E. coli ATCC 25922 (E. coli ATCC 25922 [3]) | MBIC90, P.aeruginosa ATCC 27853 (P.aeruginosa ATCC 27853)
8 µg/mL: MIC, E. coli ATCC 25922 (E. coli ATCC 25922 [1]) | MBIC50, A. baumannii ATCC 19606 (A. baumannii ATCC 19606 [2]) | MBIC90, A. baumannii ATCC 19606 (A. baumannii ATCC 19606 [2]) | MIC, A. baumannii 822144 (A. baumannii 822144) | MIC, S. aureus 794 (S. aureus 794) | MIC, MRSA 51 (MRSA 51) | MIC, S. aureus ATCC 25923 (S. aureus ATCC 25923) | MIC, MRSA 113 (MRSA 113) | MBIC50, P.aeruginosa ATCC 27853 (P.aeruginosa ATCC 27853)
4 µg/mL: MIC, A. baumannii 9896 (A. baumannii 9896) | MIC, A. baumannii 91810 (A. baumannii 91810) | MIC, A. baumannii 91152 (A. baumannii 91152) | MIC, A. baumannii 51243 (A. baumannii 51243) | MIC, A. baumannii ATCC 19606 (A. baumannii ATCC 19606 [4]) | MIC, A. baumannii 5444 (A. baumannii 5444) | MIC, A. baumannii 9236 (A. baumannii 9236) | MIC, A. baumannii 9336 (A. baumannii 9336) | MIC, A. baumannii 9828 (A. baumannii 9828) | MIC, A. baumannii 97830 (A. baumannii 97830) | MIC, A. baumannii 9840 (A. baumannii 9840) | MIC, A. baumannii 9234 (A. baumannii 9234) | MIC, S. aureus 725 (S. aureus 725) | MIC, MRSA ATCC 33591 (MRSA ATCC 33591) | MIC, MRSA 48 (MRSA 48) | MIC, MRSA 71 (MRSA 71) | MIC, MRSA 74 (MRSA 74) | MIC, MRSA 936 (MRSA 936) | MIC, MRSA 23 (MRSA 23) | MIC, MRSA 54 (MRSA 54) | MIC, MRSA 75 (MRSA 75) | MIC, MRSA 52 (MRSA 52)

C=CCCCC(C)(NC(=O)[C@H](CC(C)C)NC(=O)[C@H](CCCCN)NC(=O)[C@H](CCCCN)NC(=O)[C@H](CC(C)C)NC(=O)[C@H](CC(C)C)NC(=O)[C@H](CCCCN)NC(=O)[C@H](CC(C)C)NC(=O)[C@@H](N)Cc1ccccc1)C(N)=O (some centres unmarked) [Feleucin-K70] (H-FLKLLKKL[ξαMeGly(pent-4-enyl)]-NH2)
4 µg/mL: MIC, A. baumannii 9896 (A. baumannii 9896)
less than 1%: hemolysis rate at 128 µg/mL (mouse RBCs)
16 µg/mL: MBIC90, A. baumannii ATCC 19606 (A. baumannii ATCC 19606 [2]) | MBIC90, P.aeruginosa ATCC 27853 (P.aeruginosa ATCC 27853)
32 µg/mL: MBIC90, E. coli ATCC 25922 (E. coli ATCC 25922 [3])
8 µg/mL: MIC, E. coli ATCC 25922 (E. coli ATCC 25922 [1]) | MBIC50, A. baumannii ATCC 19606 (A. baumannii ATCC 19606 [2]) | MBIC50, E. coli ATCC 25922 (E. coli ATCC 25922 [3]) | MIC, A. baumannii 91810 (A. baumannii 91810) | MIC, A. baumannii 91152 (A. baumannii 91152) | MIC, A. baumannii 51243 (A. baumannii 51243) | MIC, A. baumannii ATCC 19606 (A. baumannii ATCC 19606 [4]) | MIC, A. baumannii 5444 (A. baumannii 5444) | MIC, A. baumannii 9236 (A. baumannii 9236) | MIC, A. baumannii 9336 (A. baumannii 9336) | MIC, A. baumannii 9828 (A. baumannii 9828) | MIC, A. baumannii 822144 (A. baumannii 822144) | MIC, A. baumannii 97830 (A. baumannii 97830) | MIC, A. baumannii 9840 (A. baumannii 9840) | MIC, A. baumannii 9234 (A. baumannii 9234) | MIC, S. aureus 725 (S. aureus 725) | MIC, MRSA ATCC 33591 (MRSA ATCC 33591) | MIC, S. aureus 794 (S. aureus 794) | MIC, MRSA 51 (MRSA 51) | MIC, MRSA 48 (MRSA 48) | MIC, MRSA 71 (MRSA 71) | MIC, MRSA 74 (MRSA 74) | MIC, MRSA 936 (MRSA 936) | MIC, MRSA 23 (MRSA 23) | MIC, MRSA 54 (MRSA 54) | MIC, MRSA 75 (MRSA 75) | MIC, S. aureus ATCC 25923 (S. aureus ATCC 25923) | MIC, MRSA 113 (MRSA 113) | MIC, MRSA 52 (MRSA 52) | MBIC50, P.aeruginosa ATCC 27853 (P.aeruginosa ATCC 27853)
